Laboratory results: US8143212B2 (Vicuron Pharmaceuticals Inc., priority 2002, dated 2012)
Read-outs that look alike come from different tables or passages of the source.

How the values were obtained:
S. pneumoniae = test: Murine thigh-infection model (time kill, dosing regimen, PK/PD, neutrophils; Tables 31-33); type: in vivo, mice; conditions: for 1 log kill mg/kg / 2 log kill mg/kg: total dose over 6 days
Method: Each point represents the mean of 4 thighs. Five dose levels, ranging 16-fold were used.
Five different doses (two-fold increases) were used. […] Each point represents the mean of 4 thighs.
Each point represents the mean of four thighs.
Each point represents the mean value from 4 thighs. The static dose, and the doses associated with a 1 and 2 log kill were calculated from the parameters estimated by non-linear regression using the Hill equation.

human albumin = human albumin (Homo sapiens, UniProt P02768); conditions: pH 7.4
Sequence of human albumin (P02768 25-609): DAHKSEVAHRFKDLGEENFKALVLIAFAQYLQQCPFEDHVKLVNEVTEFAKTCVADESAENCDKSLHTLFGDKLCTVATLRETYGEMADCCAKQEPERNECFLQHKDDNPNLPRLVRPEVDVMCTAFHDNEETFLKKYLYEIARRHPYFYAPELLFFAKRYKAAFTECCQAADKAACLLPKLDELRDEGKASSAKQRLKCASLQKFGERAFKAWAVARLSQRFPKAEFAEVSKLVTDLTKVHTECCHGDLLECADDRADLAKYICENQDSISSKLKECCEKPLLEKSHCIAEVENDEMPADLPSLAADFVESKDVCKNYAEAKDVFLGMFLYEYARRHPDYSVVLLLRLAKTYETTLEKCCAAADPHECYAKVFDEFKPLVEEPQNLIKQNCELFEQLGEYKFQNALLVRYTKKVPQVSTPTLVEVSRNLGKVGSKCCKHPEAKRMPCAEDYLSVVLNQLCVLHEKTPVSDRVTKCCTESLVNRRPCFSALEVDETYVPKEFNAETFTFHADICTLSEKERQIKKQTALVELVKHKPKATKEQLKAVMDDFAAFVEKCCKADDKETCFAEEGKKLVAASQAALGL
Method: Integrated heat effects, after correction for heats of dilution, were analyzed by non-linear regression using a simple single-site binding model with the standard Microcal ORIGIN software package. Raw data (μcal/sec) for each injection were integrated to give the total heat effect per addition, then divided by amount of injectant to give kcal/mole of injectant. The same integration was applied for control dilution effects, and this was subtracted from the actual titration data. This provided a differential of the binding curve in which the extent of binding is proportional to the total heat liberated (or absorbed). This was then analyzed by non-linear regression methods in terms of various standard binding models. The simplest model assumes simple non-competitive binding equilibrium, and gives three parameters:

[1] = rat, in vivo
Method: (§1) Excreta and more than 40 different tissues were collected through 70 days post-administration, and the tissue distribution and pharmacokinetics of drug-derived radioactivity were determined.
Following dose administration, urine and feces were collected at 24 hour intervals to 14, 36, and 70 days after the dose (3 rats/final collection time). Water and methanol cage washes were also collected. Carcasses were analyzed at the end of the collection period. All samples were analyzed for total radioactivity content by liquid scintillation counting (LSC).

[2] = rat, in vivo; remark: listed apart in the source
Method: as §1
Rats (3 per time-point) were euthanized at 12, 24, 48, 72, 96, 120, 144, 168, 336, 840, 1176 and 1680 hours post dose for collection of blood, plasma, and tissues (including carcass). All samples were analyzed by LSC.
As part of the QTD studies, bile samples were collected from bile duct cannulated rats (4 animals) through 384 h (16 days) post-dose.

[3] = Pharmacokinetics and safety in subjects with hepatic impairment (VER001-12); conditions: human, in vivo, intravenous, 1000 mg Day 1 and 500 mg Day 8, Mean (±SD)
Excerpt: The study enrolled otherwise healthy subjects with mild, moderate, or severe hepatic impairment (Child-Pugh scores 5 to 6, 7 to 9, and 10 to 15, respectively) and matched control subjects with normal hepatic function.

CN[C@H]1C(=O)N[C@@H]2Cc3ccc(cc3)Oc3cc4cc(c3O[C@@H]3O[C@H](C(=O)O)[C@@H](O)[C@H](O)[C@H]3NC(=O)CCCCCCCCC(C)C)Oc3ccc(cc3Cl)[C@@H](O)[C@@H]3NC(=O)[C@H](NC(=O)[C@@H]4NC(=O)[C@@H](NC2=O)c2cc(cc(O)c2Cl)Oc2cc1ccc2O)c1ccc(O)c(c1)-c1c(O[C@H]2O[C@H](CO)[C@@H](O)[C@H](O)[C@@H]2O)cc(O)cc1[C@@H](C(=O)NCCCN(C)C)NC3=O [Dalbavancin]
Static Effect f24AUC/MIC (S. pneumoniae; SP1325, q 24 h regimen): 29.0 | Static Effect mg/kg/24 h (S. pneumoniae; SP1325, q 24 h regimen): 1.46 mg/kg/24 h | 1 Log Kill f24AUC/MIC (S. pneumoniae; SP1325, q 72 h regimen): 8.8 | 1 Log Kill mg/kg/24 h (S. pneumoniae; SP1325, q 72 h regimen): 0.99 mg/kg/24 h | 2 Log Kill f24AUC/MIC (S. pneumoniae; SP1325, q 72 h regimen): 17.6 | 2 Log Kill mg/kg/24 h (S. pneumoniae; SP1325, q 72 h regimen): 1.16 mg/kg/24 h | Static Effect f24AUC/MIC (S. pneumoniae; SP1325, q 72 h regimen): 6.0 | Static Effect mg/kg/72 h (S. pneumoniae; SP1325, q 72 h regimen): 0.83 mg/kg/72 h | 1 Log Kill f24AUC/MIC (S. pneumoniae; SP1329, q 24 h regimen): 23.5 | 1 Log Kill mg/kg/24 h (S. pneumoniae; SP1329, q 24 h regimen): 1.18 mg/kg/24 h | 2 Log Kill f24AUC/MIC (S. pneumoniae; SP1329, q 24 h regimen): 26.7 | 2 Log Kill mg/kg/24 h (S. pneumoniae; SP1329, q 24 h regimen): 1.45 mg/kg/24 h | Static Effect f24AUC/MIC (S. pneumoniae; SP1329, q 24 h regimen): 18.0 | Static Effect mg/kg/24 h (S. pneumoniae; SP1329, q 24 h regimen): 0.90 mg/kg/24 h | 1 Log Kill f24AUC/MIC (S. pneumoniae; SP1396, q 72 h regimen): 4.3 | 1 Log Kill mg/kg/24 h (S. pneumoniae; SP1396, q 72 h regimen): 0.61 mg/kg/24 h | 2 Log Kill f24AUC/MIC (S. pneumoniae; SP1396, q 72 h regimen): 4.8 | 2 Log Kill mg/kg/24 h (S. pneumoniae; SP1396, q 72 h regimen): 0.69 mg/kg/24 h | Static Effect f24AUC/MIC (S. pneumoniae; SP1396, q 72 h regimen): 4.0 | Static Effect mg/kg/72 h (S. pneumoniae; SP1396, q 72 h regimen): 0.52 mg/kg/72 h | 1 log kill mg/kg (S. pneumoniae; SP10813, q 12 h): 2.8 mg/kg | 2 log kill mg/kg (S. pneumoniae; SP10813, q 12 h): 3.5 mg/kg | 1 log kill mg/kg (S. pneumoniae; SP10813, q 24 h): 1.54 mg/kg | 2 log kill mg/kg (S. pneumoniae; SP10813, q 24 h): 1.75 mg/kg | 1 Log Kill f24AUC/MIC (S. pneumoniae; SP10813, q 24 h regimen): 8.7 | 1 Log Kill mg/kg/24 h (S. pneumoniae; SP10813, q 24 h regimen): 1.54 mg/kg/24 h | 2 Log Kill f24AUC/MIC (S. pneumoniae; SP10813, q 24 h regimen): 9.9 | 2 Log Kill mg/kg/24 h (S. pneumoniae; SP10813, q 24 h regimen): 1.75 mg/kg/24 h | Static Effect f24AUC/MIC (S. pneumoniae; SP10813, q 24 h regimen): 7.5 | Static Effect mg/kg/24 h (S. pneumoniae; SP10813, q 24 h regimen): 1.34 mg/kg/24 h | 1 log kill mg/kg (S. pneumoniae; SP10813, q 36 h): 1.53 mg/kg | 2 log kill mg/kg (S. pneumoniae; SP10813, q 36 h): 1.81 mg/kg | 1 log kill mg/kg (S. pneumoniae; SP10813, q 72 h): 0.77 mg/kg | 2 log kill mg/kg (S. pneumoniae; SP10813, q 72 h): 0.82 mg/kg | 1 Log Kill f24AUC/MIC (S. pneumoniae; SP10813, q 72 h regimen): 1.6 | 1 Log Kill mg/kg/24 h (S. pneumoniae; SP10813, q 72 h regimen): 0.77 mg/kg/24 h | 2 Log Kill f24AUC/MIC (S. pneumoniae; SP10813, q 72 h regimen): 1.6 | 2 Log Kill mg/kg/24 h (S. pneumoniae; SP10813, q 72 h regimen): 0.82 mg/kg/24 h | Static Effect f24AUC/MIC (S. pneumoniae; SP10813, q 72 h regimen): 1.4 | Static Effect mg/kg/72 h (S. pneumoniae; SP10813, q 72 h regimen): 0.71 mg/kg/72 h | drop in cfu (S. pneumoniae; all strains, 6 day study): > 4 log10 | free drug 24 h AUC/MIC associated with a static effect (S. pneumoniae; every 24 h dosing): 17.6±6.9 | free drug AUC/MIC required for efficacy (S. pneumoniae; over the 6 days of therapy, net static effect, 1 or 2 log kill): ~100 | extent of killing (S. pneumoniae; single doses, highest doses studied): > 2 log | Calculated percent Binding (human albumin; 1 μM): 98.8% | Calculated percent Binding (human albumin; 10 μM): 98.8% | Calculated percent Binding (human albumin; 100 μM): 98.7% | Calculated percent Binding (human albumin; 165 μM): 98.6% | Calculated percent Binding (human albumin; 250 μM): 98.5% | Calculated percent Binding (human albumin; 500 μM): 98.0% | dose remaining in the carcass ([1]; male, Sprague-Dawley, 1680 h): 4.5 % of the dose | share of excreted radioactivity eliminated in feces ([1]; iv, 20 mg/kg): ⅓ | share of excreted radioactivity eliminated in urine ([1]; iv, 20 mg/kg): ⅔ | blood to plasma ratio of drug-derived radioactivity ([2]; male, Sprague-Dawley): < 1 | recovered radioactivity in any single tissue ([2]; male, Sprague-Dawley, 5 days): < 5 % of the dose | administered radioactivity retained in carcass ([2]; male, Sprague-Dawley, 70 days): 2.34% | time to maximum concentration (Cmax) in most tissues [2]: ≤ 24 h | half-life ([3]; t1/2, Mild Hepatic Impairment (N = 6)): 13.5 days | half-life ([3]; t1/2, Moderate Hepatic Impairment (N = 6)): 13.3 days | half-life ([3]; t1/2, Normal Hepatic Function (N = 9)): 13.4 days | half-life ([3]; t1/2, Severe Hepatic Impairment (N = 5)): 13.4 days
